{
  "source": "ChEMBL document CHEMBL1136731",
  "about": "“Synthesis and biological evaluation of non-peptidic cyclophilin ligands” (J Med Chem, 2003)",
  "data": [
    {"target": "Peptidyl-prolyl cis-trans isomerase A (Rattus norvegicus) (UniProt P10111)", "sequence (P10111 whole entry)": "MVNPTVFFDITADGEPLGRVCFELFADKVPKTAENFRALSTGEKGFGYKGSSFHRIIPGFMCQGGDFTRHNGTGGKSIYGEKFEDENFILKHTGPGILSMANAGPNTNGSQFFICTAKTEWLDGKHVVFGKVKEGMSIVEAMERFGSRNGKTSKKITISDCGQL", "experiment": "In vitro inhibition of the rotamase activity of cyclophilin A (CyPA) […]", "units": {"inhibition": "%"}, "values": [
      {"compound": "O=C(NCc1ccccc1)Nc1cccc(NC(=O)NCc2ccccc2)c1", "inhibition": 19},
      {"compound": "O=C(Nc1ccc(Cl)cc1)NC1CCCC(NC(=O)Nc2ccc(Cl)cc2)C1", "note": "(stereo not drawn)", "inhibition": 32},
      {"compound": "CC(C)(C)NC(=O)NC1CCCC(NC(=O)NC(C)(C)C)C1", "note": "(stereo not drawn)", "inhibition": 7},
      {"compound": "Cc1ccc(NC(=O)Nc2cccc(NC(=O)Nc3ccc(C)cc3C)c2)c(C)c1", "inhibition": 100},
      {"compound": "COc1cccc(NC(=O)Nc2cccc(NC(=O)Nc3cccc(OC)c3)c2)c1", "inhibition": 8},
      {"compound": "COc1cccc(NC(=O)NC2CCCC(NC(=O)Nc3cccc(OC)c3)C2)c1", "note": "(stereo not drawn)", "inhibition": 100},
      {"compound": "N#Cc1cccc(NC(=O)Nc2cccc(NC(=O)Nc3cccc(C#N)c3)c2)c1", "inhibition": 38},
      {"compound": "O=C(Nc1cccc(NC(=O)Nc2ccc(Br)cc2Br)c1)Nc1ccc(Br)cc1Br", "inhibition": 100},
      {"compound": "O=C(NCC(c1ccccc1)c1ccccc1)Nc1cccc(NC(=O)NCC(c2ccccc2)c2ccccc2)c1", "inhibition": 100},
      {"compound": "CN(C)c1ccc(NC(=O)Nc2cc(NC(=O)Nc3ccc(N(C)C)cc3)c(Br)cc2Br)cc1", "inhibition": 98},
      {"compound": "O=C(NC1CCCCC1)NC1CCCC(NC(=O)NC2CCCCC2)C1", "note": "(stereo not drawn)", "inhibition": 24},
      {"compound": "O=C(Nc1cc(Cl)cc(Cl)c1)Nc1cccc(NC(=O)Nc2cc(Cl)cc(Cl)c2)c1", "inhibition": 100},
      {"compound": "O=C(NCc1cccc2ccccc12)Nc1cccc(NC(=O)NCc2cccc3ccccc23)c1", "inhibition": 100},
      {"compound": "O=C(NC1CCCC(NC(=O)NC23CC4CC(CC(C4)C2)C3)C1)NC12CC3CC(CC(C3)C1)C2", "note": "(stereo not drawn)", "inhibition": 28},
      {"compound": "CCCCNC(=O)Nc1cccc(NC(=O)NCCCC)c1", "inhibition": 23},
      {"compound": "O=C(Nc1ccc(Br)cc1Br)NC1CCCC(NC(=O)Nc2ccc(Br)cc2Br)C1", "note": "(stereo not drawn)", "inhibition": 100},
      {"compound": "Cc1ccc(NC(=O)NC2CCCC(NC(=O)Nc3ccc(C)cc3C)C2)c(C)c1", "note": "(stereo not drawn)", "inhibition": 40},
      {"compound": "O=C(Nc1cccc(NC(=O)Nc2ccccn2)c1)Nc1ccccn1", "inhibition": 0},
      {"compound": "O=C(Nc1cccc(NC(=O)Nc2ccon2)c1)Nc1ccon1", "inhibition": 93},
      {"compound": "O=C(Nc1cc(Cl)cc(Cl)c1)NC1CCCC(NC(=O)Nc2cc(Cl)cc(Cl)c2)C1", "note": "(stereo not drawn)", "inhibition": 100},
      {"compound": "O=C(NCc1ccccc1)NC1CCCC(NC(=O)NCc2ccccc2)C1", "note": "(stereo not drawn)", "inhibition": 11},
      {"compound": "N#Cc1cccc(NC(=O)NC2CCCC(NC(=O)Nc3cccc(C#N)c3)C2)c1", "note": "(stereo not drawn)", "inhibition": 22},
      {"compound": "O=C(Nc1cccc2ccccc12)NC1CCCC(NC(=O)Nc2cccc3ccccc23)C1", "note": "(stereo not drawn)", "inhibition": 100},
      {"compound": "O=C(Nc1ccc(I)cc1)Nc1cc(NC(=O)Nc2ccc(I)cc2)c(Br)cc1Br", "inhibition": 100},
      {"compound": "O=C(Cc1ccccc1)Nc1cccc(NC(=O)c2cc(Cl)cc(Cl)c2)c1", "inhibition": 44},
      {"compound": "O=C(Nc1cccc(NC(=O)c2cccnc2)c1)c1cccnc1", "inhibition": 6}
    ]},
    {"target": "Peptidyl-prolyl cis-trans isomerase A (Rattus norvegicus, UniProt P10111)", "sequence (P10111 whole entry)": "as above", "experiment": "In vitro inhibition of the rotamase activity of cyclophilin A (CyPA)", "units": {"IC50": "nM"}, "values": [
      {"compound": "O=C(CC(c1ccccc1)c1ccccc1)Nc1cccc(NC(=O)c2cc(Cl)cc(Cl)c2)c1", "IC50": 870},
      {"compound": "CCc1ccccc1NC(=O)Nc1cccc(NC(=O)c2cc(Cl)cc(Cl)c2)c1", "IC50": 1410},
      {"compound": "O=C(Nc1cc(Cl)cc(Cl)c1)Nc1cccc(NC(=O)c2cc(Cl)cc(Cl)c2)c1", "IC50": 690},
      {"compound": "COc1cccc(NC(=O)NC2CCCC(NC(=O)Nc3cccc(OC)c3)C2)c1", "note": "(stereo not drawn)", "IC50": 9500},
      {"compound": "O=C(Cc1cccc2ccccc12)Nc1cccc(NC(=O)c2cc(Cl)cc(Cl)c2)c1", "IC50": 1120},
      {"compound": "CN(C)c1ccc(NC(=O)Nc2cc(NC(=O)Nc3ccc(N(C)C)cc3)c(Br)cc2Br)cc1", "IC50": 2900},
      {"compound": "O=C(Nc1ccccc1)Nc1cccc(NC(=O)c2cc(Cl)cc(Cl)c2)c1", "IC50": 1180},
      {"compound": "S=C(Nc1cc(Cl)cc(Cl)c1)Nc1cccc(NC(=S)Nc2cc(Cl)cc(Cl)c2)c1", "IC50": 480},
      {"compound": "Cc1ccccc1CNC(=O)Nc1cccc(NC(=O)c2cc(Cl)cc(Cl)c2)c1", "IC50": 2120},
      {"compound": "O=C(Cc1ccc2ccccc2c1)Nc1cccc(NC(=O)c2cc(Cl)cc(Cl)c2)c1", "IC50": 880},
      {"compound": "O=C(NCc1ccccc1)Nc1cccc(NC(=O)c2cc(Cl)cc(Cl)c2)c1", "IC50": 3350},
      {"compound": "O=C(Nc1cccc(NC(=O)Nc2ccon2)c1)Nc1ccon1", "IC50": 4000},
      {"compound": "O=C(Nc1ccc(C(F)(F)F)cc1)Nc1cccc(NC(=O)c2cc(Cl)cc(Cl)c2)c1", "IC50": 940},
      {"compound": "O=C(Nc1cccc2ccccc12)NC1CCCC(NC(=O)Nc2cccc3ccccc23)C1", "note": "(stereo not drawn)", "IC50": 4550},
      {"compound": "O=C(Nc1cccc(NC(=O)c2cc(Cl)cc(Cl)c2)c1)c1cc(Cl)cc(Cl)c1", "IC50": 930},
      {"compound": "O=C(Nc1ccc(I)cc1)Nc1cc(NC(=O)Nc2ccc(I)cc2)c(Br)cc1Br", "IC50": 590},
      {"compound": "O=C(Nc1cccc(NC(=O)c2cc(Cl)cc(Cl)c2)c1)Nc1ccc(Br)cc1Br", "IC50": 620}
    ]}
  ]
}
